Results taken from patent US9207219B1, “Fully automated analytical method for determination of chloroethers in water and urine sample” (priority 2014, dated 2015).
In brackets after ≈: the same amount, converted by molar mass.

Assays:
[1] = cited from earlier work
[2] = Concentration of CEs in human urine determined by fully automated FA-SPME/GC-MS; settings: urine of a volunteer working at water desalination facility; urine diluted 1:1 with ultrapure water before extraction
Experimental: Analyses were performed using a gas chromatograph (Agilent technologies, 7890A GC) coupled with a quadrupole mass selective spectrometer (Agilent technologies, 5975C) equipped with an inert ion source and provided with a split-splitless injection port. An A HP-5 GC fused silica capillary column (Agilent 19091J-413; 30 m×320 μm ID×0.25 μm thickness) was selected to separate the analytes. CTC CombiPAL autosampler (GC sampler 80, Zwingen, Switzerland) was used for the full automated FA-SPME. Ultra high purity helium (99.999%, Abdulah Hashim, Al-Khobar, Saudi Arabia) was used as the carrier gas at a flow rate of 1.3 mL min^−1. The samples were injected in the splitless mode. The temperature program used for the analyses was as follows: the initial temperature was 40° C. held 1 min which was then increased to 118° C. at 10° C. min^−1 and held for 3 min, then to 190 C at 15° C. min^−1 and held for 4 min. The total run time was 18.6 min. The injection port, ion source and interface temperatures were 280° C., 230° C., and 250° C., respectively. For qualitative determinations, the MSD was operated in full-scan mode from m/z 50 to 550 and selective ion monitoring mode was used for the quantification of the analytes. […]
The applicability of the proposed FA-SPME technique for real water and urine sample matrices were evaluated. […]

[3] = cited from earlier work; remark: listed apart in the source

| SMILES | Solubility at 20-25° C. [1] | Vapor pressure at 20-25° C. [1] | Henry's law constant at 20° C. [1] | Diffusion coefficient in air [1] | Diffusion coefficient in water [1] | concentration in real sample, Human urine [2] | minimum half-life in water [3] |
| --- | --- | --- | --- | --- | --- | --- | --- |
| ClCCOCCCl [BCEE, Bis(2-chloroethyl)ether] | 10200 µg/mL (≈ 71.3 mM) | 1.34 mmHg | 0.00089 | 0.069 cm^2 s^−1 | 7.53E−06 cm^2 s^−1 | 30.8 ng/mL | – |
| ClCCOCOCCCl [BCEM, Bis(2-chloroethoxy)methane] | 1353.4 µg/mL (≈ 7.82 mM) | 0.179 mmHg | 0.001 | 0.058 cm^2 s^−1 | 7.11E−06 cm^2 s^−1 | 11.5 ng/mL | ≥ 2 years |
